Data on 11 compounds can be found in ChEMBL document CHEMBL1671811, “Deconstruction of non-nucleoside reverse transcriptase inhibitors of human immunodeficiency virus type 1 for exploration of the optimization landscape of fragments” (J Med Chem, 2011).

As usually defined, the IC50 is the point on the concentration scale where inhibition reaches its midpoint. A lower IC50 goes with greater potency. Usually Kd stands for the equilibrium constant for the complex coming apart. Read a low Kd as higher affinity.

In one experiment the target is T1, Human immunodeficiency virus type 1 reverse transcriptase (Human immunodeficiency virus 1, UniProt Q72547). Put plainly: Inhibition of HIV1 reverse transcriptase.
On to `Cc1cc(S(N)(=O)=O)ccc1NC(=O)COc1ccc(Cl)cc1C(=O)c1cc(F)cc(C(F)(F)F)c1`, for which the IC50 was determined as 0.0014 µM.

The next experiment deals with T1, Human immunodeficiency virus type 1 reverse transcriptase. Put plainly: Binding affinity to HIV1 reverse transcriptase by surface plasmon resonance based biosensor assay.
As to `S=C(NCCc1ccccc1)Nc1ccccn1`, the Kd was 6 µM.

The compound `S=C(NCCc1ccccc1)Nc1ccc(Br)cn1` showed an equilibrium dissociation constant (Kd) of 2 µM. Same read-out and setting: for `NC(=S)NCCc1ccccc1` the value was 700 µM; for `NS(=O)(=O)c1ccc(NC(=O)CSc2nc[nH]n2)cc1`, 1600 µM; for `CC(=O)c1ccccc1OCC(=O)Nc1ccccc1C`, 800 µM. Take `NS(=O)(=O)c1ccc(NC(=O)CSc2nncn2-c2ccccc2)cc1`: the Kd was 1300 µM. On the same count and under the same terms, with `Cc1ccc(-n2cnnc2SCC(=O)Nc2ccccc2)cc1` the figure was 800 µM; with `O=C(CSc1nncn1-c1ccccc1)Nc1ccccc1`, 1700 µM; with `Cc1ccccc1OCC(=O)Nc1ccc(S(N)(=O)=O)cc1`, 1100 µM.

In turn, `NS(=O)(=O)c1ccc(NC(=O)COc2ccc(Cl)cc2)cc1` showed a Kd of 30 µM.
